Assay results as given in article PMC6432638 (Science signaling, 2018).

Biological target: SMARCA4 (Homo sapiens, UniProt P51532)
Assay: TR-FRET ligand displacement assay with recombinant bromodomain and BET ligand
Type: binding
Conditions: read-out: % inhibition at 10 μM

Sequence of SMARCA4 (P51532 1453-1564 limits assumed): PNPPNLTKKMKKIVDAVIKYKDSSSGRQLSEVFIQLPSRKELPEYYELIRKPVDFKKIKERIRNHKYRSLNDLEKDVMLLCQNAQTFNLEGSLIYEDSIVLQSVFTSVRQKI

inhibition at 10 µM: 95%
SMILES: O=C(/C=C/N1C[C@H]2C[C@@H]1CN2c1ccccn1)c1ccccc1O [PFI-3]
